Data set [1] concerns CCRF-CEM. In words: Cytotoxicity against human CCRF-CEM cells at 10 ug/ml. Type of data set: functional, cell-based.
Data set [2] concerns Lacticaseibacillus casei. Put plainly: Antimicrobial activity against Lactobacillus casei ATCC 7469 at 2 ug/ml. It is filed as functional, organism-based.
Another data set relates to Mus musculus. Put plainly: Toxicity in mouse L1210 cells allografted BDF1 mouse at 60 mg/kg, ip. Type of data set: organism-based. More on the design: dose 60 mg/kg, route intraperitoneal. Conditions: in vivo.
A further data set deals with Pediococcus. In words: Increase of Pediococcus cerevisiae ATCC 8081 growth relative to leucovorin. It is filed as functional.
Data set [3] concerns the target T1, Thymidylate synthase (Lactobacillus casei) (UniProt P00469).
T1 sequence (whole entry): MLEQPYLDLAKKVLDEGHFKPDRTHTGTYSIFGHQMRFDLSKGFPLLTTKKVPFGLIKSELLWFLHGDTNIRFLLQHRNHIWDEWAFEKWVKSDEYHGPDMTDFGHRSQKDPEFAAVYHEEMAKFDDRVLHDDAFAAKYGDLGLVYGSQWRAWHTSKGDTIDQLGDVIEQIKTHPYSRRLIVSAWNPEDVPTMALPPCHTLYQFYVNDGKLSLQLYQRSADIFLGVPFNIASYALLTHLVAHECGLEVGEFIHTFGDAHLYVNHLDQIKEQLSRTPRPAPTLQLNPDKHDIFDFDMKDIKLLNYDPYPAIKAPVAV
In words: Inhibition of Lactobacillus casei thymidylate synthetase. Particulars: Lacticaseibacillus casei.

Another data set deals with L1210. Put plainly: Antitumor activity against mouse L1210 cells allografted in BDF1 mouse assessed as increase of life span at non-toxic dosed administered as ip on day 1, 4 and 7. Type of data set: functional, organism-based.
The test system of another data set is Enterococcus faecium. Put plainly: Increase of Streptococcus faecium ATCC 8043 growth relative to folic acid. Type of data set: functional.
For data set [4], the system named is Lacticaseibacillus casei. Put plainly: Antimicrobial activity against Lactobacillus casei ATCC 7469. Conditions: read-out: ID50 (the source's name). Type of data set: functional.
Data set [5] relates to CCRF-CEM. In words: Cytotoxicity against human CCRF-CEM cells. Type of data set: functional. Particulars: read-out: ID50 (the source's name).

Converted amounts (≈) assume the structure as drawn. The source made the active and inactive calls. No cut-off for these calls is given here.

As for `COC(=O)CC[C@H](NC(=O)Nc1ccc(/N=C/c2cnc3nc(NC(C)=O)[nH]c(=O)c3n2)cc1)C(=O)OC`, the result in the data set on CCRF-CEM [1] and with Lacticaseibacillus casei [2] was inactive.

As for `COC(=O)CC[C@H](NC(=O)Nc1ccc(NCc2cnc3nc(NC(C)=O)[nH]c(=O)c3n2)cc1)C(=O)OC`, the outcome with CCRF-CEM [1] and in the data set with Lacticaseibacillus casei [2] was inactive.

`COC(=O)C[C@H](NC(=O)Nc1ccc(/N=C/c2cnc3nc(NC(C)=O)[nH]c(=O)c3n2)cc1)C(=O)OC`: the result in the data set on CCRF-CEM [1] and in the data set on Lacticaseibacillus casei [2] was inactive.

Turning to `COC(=O)C[C@H](NC(=O)Nc1ccc(NCc2cnc3nc(NC(C)=O)[nH]c(=O)c3n2)cc1)C(=O)OC`, the result in the data set on CCRF-CEM [1] and with Lacticaseibacillus casei [2] was inactive.

As for `Nc1nc2ncc(CNc3ccc(NC(=O)NC(CCC(=O)O)C(=O)O)cc3)nc2c(=O)[nH]1` (racemic), the Activity result in the data set with Mus musculus is “Toxic”; in the data set with Pediococcus, 0.5%; in the data set with Enterococcus faecium it was 2%. The outcome with CCRF-CEM [1], in the data set with L1210 and with Lacticaseibacillus casei [2] was inactive. The ID50 in data set [3] is 1.8 ×10⁻⁴ M.

For `Nc1nc2ncc(CNc3ccc(NC(=O)NC(CC(=O)O)C(=O)O)cc3)nc2c(=O)[nH]1` (racemic), the Activity entry in the data set on Mus musculus is “Toxic”. In addition, the result with CCRF-CEM [1] and in the data set with L1210 was inactive. In data set [3], this compound had an ID50 of 1.8 ×10⁻⁴ M. In addition, in the data set on Lacticaseibacillus casei [4], the IC50 is 1.6 µg/mL (≈ 3.62 µM).

For `CN(Cc1cnc2nc(N)nc(N)c2n1)c1ccc(C(=O)N[C@@H](CCC(=O)O)C(=O)O)cc1` [METHOTREXATE], the IC50 in the data set on CCRF-CEM [5] came out at 0.02 µg/mL (≈ 0.044 µM); in the data set with Lacticaseibacillus casei [4] it was 0.01 µg/mL (≈ 0.022 µM).

The values above are taken from ChEMBL document CHEMBL3227995, “Synthesis of aza homologues of folic acid” (J Med Chem, 1979).
